Literature values in paper PMC10410440, “Preclinical PK investigation of a novel IDO1/TDO dual inhibitor—SHR9146 in mouse plasma and tissues by LC-MS/MS” (Frontiers in Oncology, 2023).

Parameters: method as in PMID 31221619
Conditions: phase III trial; epacadostat combined with a PD-1 checkpoint inhibitor compared with pembrolizumab alone; cited from earlier work

Q: With `NS(=O)(=O)NCCNc1nonc1C(=NO)Nc1ccc(F)c(Br)c1` [epacadostat] as the molecule, how does the progression-free survival rate read?
A: no significant improvement
